Results as given in patent US20250305023A1, “MEASUREMENT OF PERMEATION OF SMALL MOLECULES INTO GRAM NEGATIVE BACTERIA” (University of Virginia Patent Foundation, priority 2022, published 2025).
≈ marks a conversion by molar mass, not a printed value.

Legend:
[1] = test system: E. coli expressing HaloTag; assay: Bacterial ChloroAlkane Penetration Assay (BaCAPA) pulse-chase, flow cytometry; type: cell-based, Escherichia coli; conditions: for EC50: Escherichia coli, pulse with chloroalkane-tagged molecule, IPTG induced, flow cytometry, read-out: EC50 (apparent accumulation/permeation, BaCAPA)
Excerpt: This method relies on the genetically encoded HaloTag^24, a mutant form of a bacterial haloalkane dehalogenase that facilitates covalent bond formation with chloroalkane-linked ligands (FIG. 1). […] The assay is based on the expression of the HaloTag protein inside bacterial cells, which are exposed to molecules of interest linked to a chloroalkane tag. If the molecules reach the HaloTag proteins inside the bacteria, they will be covalently bound to the protein. This pulse step is followed by a chase step with a fluorophore-linked chloroalkane. […] Conversely, when a large fraction of molecules of interest permeate the cell membranes and reach the HaloTag proteins, there will be reduced sites available to react with the fluorophore.
In some embodiments, the BaCAPA process can report on apparent accumulation of small molecules past the cellular envelope. In these embodiments, (non-fluorescent) small molecules modified with the chloroalkane are incubated with the bacterial cells expressing HaloTag first (pulse step), which is then followed by a treatment step with the dye R110cl (chase step).
HaloTag Protein Expression: Cytoplasmic HaloTag protein. For expression of the HaloTag protein in E. coli, HaloTag expression plasmid Cyto_Halo_pET21(b)+ was transformed into E. coli BL21(DE3) and grown on an LB/agar plate with ampicillin (100 μg/mL) at 37° C. overnight. Colonies were picked and grown in 5 mL LB broth with ampicillin at 37° C. overnight. A culture tube containing 2 mL LB media was inoculated with the overnight culture at a ratio of 1:100 and cells were grown at 37° C. for 3 h hours, or until the optical density at 600 nm reached 0.6. Cultures were induced with 1 mM Isopropyl β-d-1-thiogalactopyranoside (IPTG) at 37° C. for 2 hours in a shaker incubator, and then pelleted at 4,000 rpm for 3 min in an HERAEUS Multicentrifuge X1 centrifuge (Thermofisher Scientific). The pellet was washed three times with 1×PBS pH 7.2 following which cells were ready for assaying. The identity of the protein was confirmed by SDS-PAGE.
BaCAPA Pulse-Chase Protocol (chloroalkane-tagged molecule, chloroalkane-tagged dye). For a bacterial chloroalkane penetration assay (BaCAPA), 25 μL of serially diluted samples of the chloroalkane-tagged test molecule, in quadruplicate, were transferred into a 96-well plate at 2× of the desired concentration. The pellet obtained from the washing step above was resuspended in 2 mL of 1×PBS by vortexing thoroughly. […]

[2] = test system: E. coli expressing HaloTag; assay: BaCAPA control: labeling with chloroalkane-tagged dye; type: cell-based, Escherichia coli; conditions: 5 μM dye, compared with R110cl, FIG. 2C
Procedure: In an embodiment, fluorescence levels were determined in bacterial cells that express HaloTag proteins in the cytosol by encoding the protein on an inducible plasmid. Bacterial cells carrying the HaloTag-expressing plasmid were grown to mid-log, induced with isopropyl-β-D-1-thiogalactopyranoside (IPTG), and incubated with a fluorophore modified chloroalkane. Cytosolic HaloTag promotes the formation of a covalent bond with the fluorophore-linked chloroalkane tail (FIG. 2A). Total labeling levels of bacterial cells is then quantified using flow cytometry. In a first step in the BaCAPA, bacterial cells were treated with Rhodamine 110 modified with chloroalkane (R110cl). […] Appreciating that the fluorophore itself could be subject to the same barrier elements that are inherent to E. coli, there was also evaluated the labeling of bacterial cells with a smaller fluorophore, namely coumarin (COMcl). […] While it was clear that coumarin could also covalently modify HaloTag-expressing bacterial cells, the relative fluorescence increase was more modest in cells treated with COMcl (FIG. 2C). […]
To empirically establish the dye concentration that optimizes the signal output for the assay, bacterial cells were treated with a range of R110cl concentrations (FIG. 2D). […] HaloTag labeling with R110cl can be analyzed from the whole cellular proteome because of the selectivity of this enzymatic reaction. […]

[3] = test system: E. coli outer membrane; assay: Outer membrane disruption: co-treatment with R110cl in BaCAPA; type: cell-based, Escherichia coli; conditions: for cellular fluorescence on co-incubation with R110cl: various concentrations, 5 μM R110cl, FIG. 3A/3B
Excerpt: It is well appreciated that the OM is the major barrier to the permeation of small molecules.^28 Considerable efforts have been devoted to the discovery of molecules that disrupt the OM barrier as antibiotic adjuvants with the goal of potentiating them and/or circumventing resistance.^29-31 Therefore, these agents hold the promise of synergistically enhancing the permeation of potential antibiotics in a broad and, potentially, impactful way.
While there was a decrease in signal-to-noise, the signal strength in the presence of IPTG was well above that in the absence of IPTG.
Polymyxin nonapeptide (PMBN) mediated bacterial chloroalkane-tagged molecule penetration. For the PMBN-mediated penetration assay, 25 μL of the desired PMBN concentration was added into the wells of a 96-well plate at 3× the final concentration along with 25 μL of the HaloTag protein cell suspension (both IPTG induced and non-induced cells). Next, 25 μL of the serially diluted samples of the chloroalkane-tagged test molecule was added into the wells at 3× the desired final concentration, in quadruplicate. The plates were incubated at 37° C. with shaking at 250 RPM. After 30 min, the plate was centrifuged to pellet the cells using a Jouan C4i centrifuge (Thermofisher Scientific). The supernatant was discarded, and the pellet was washed twice with PBS. The chase step followed by addition into each test well, 50 μL of […] chloroalkane-tagged rhodamine 110 and incubated for 30 min at 37° C. with shaking in a shaker incubator at 250 RPM. The plate was centrifuged to pellet the cells and cells were washed three times with PBS and fixed with 4% formaldehyde by incubating at room temperature for 30 min. The cells were analyzed by flow cytometry on the Attune NXT Acoustic Focusing Cytometer (Invitrogen) by exciting using the blue laser ([…]).

[4] = test system: E. coli; assay: Minimum Inhibitory Concentration; type: cell-based, Escherichia coli; conditions: for MIC: Escherichia coli, 24 h, 37° C., MH media
Procedure: For all biological assays, laboratory strains of wild type E. coli (ATCC 25922), and K12 E. coli strains BL21(DE3) and E. coli Lemo21(DE3) were grown with shaking at 37° C. overnight from freezer glycerol stocks in 5 mL of Luria Broth (LB) media.
Minimum Inhibitory Concentration. Compounds were serially diluted 2-fold from stock solutions to yield 12 test concentrations in U-bottom, 96-well plates. Overnight cultures were used to inoculate LB media 1:100 and regrown to exponential phase, as determined by optical density recorded at 600 nm (OD600). All cultures were diluted again to ca. 10^6 CFU/mL in MH media, and 100 μL was inoculated into each well of a U-bottom 96-well plate (BD Biosciences, BD 351177) containing 100 μL of compound solution (in line with CLSI Standards).^4Plates were incubated statically at 37° C. for 24 h upon which time wells were evaluated visually for bacterial growth. The MIC was determined as the lowest concentration of compound resulting in no bacterial growth visible to the naked eye, based on the majority of three independent experiments. Growth and sterility controls were conducted for each plate.

[5] = test system: E. coli cells

C[N+](C)(C)CC(=O)NCCOCCOCCCCCCCl [Compound 5, HaloTag-betainamide]
relative accumulation in E. coli ([1]; methylation series of amino group, FIG. 4A): statistically significant lowered accumulation level

Cc1c(CC(=O)NCCOCCOCCCCCCCl)c(=O)oc2cc(N)ccc12 [COMcl]
relative fluorescence increase in HaloTag-expressing cells [2]: more modest

Clc1cccc(CN=C2Nc3ccccc3NC23CCNCC3)c1 [liproxstatin]
cellular fluorescence on co-incubation with R110cl [3]: increase in cellular fluorescence

O=C(NCCOCCOCCCCCCCl)c1cn(C2CC2)c2cc(N3CCNCC3)c(F)cc2c1=O [Compound 8, Ciprofloxacin-carboxy-HaloTag amide]
MIC [4]: 4 µg/mL (≈ 7.45 µM) | increase of MIC value ([4]; relative to derivatives 6 and 7): 8 fold

Cl.NCCOCCOCCCCCCCl [Compound 1, 2-(2-((6-Chlorohexyl)oxy)ethoxy)ethanamine hydrochloride]
EC50 ([1]; chase with 5 μM R110cl): ~5 µM | concentration at which nearly background fluorescence levels were observed ([1]; concentration scan, chase with 5 μM R110cl): 12 µM

O=C(CCC(=O)N1CCN(c2cc3c(cc2F)c(=O)c(C(=O)O)cn3C2CC2)CC1)NCCOCCOCCCCCCCl [Compound 6]
EC50 ([1]; chase with 5 μM R110cl): 42.2 µM | MIC [4]: 0.5 µg/mL (≈ 0.785 µM)

O=C(CN1CCN(c2cc3c(cc2F)c(=O)c(C(=O)O)cn3C2CC2)CC1)NCCOCCOCCCCCCCl [Compound 7]
MIC [4]: 0.5 µg/mL (≈ 0.84 µM)

polymyxin B nonapeptide [PMBN]
cellular fluorescence relative to cells not treated with PMBN ([3]; 10 μM of PMBN, co-treatment with R110cl): double | cellular fluorescence on co-incubation with R110cl [3]: concentration-dependent increase in cellular fluorescence | bacterial viability [5]: no loss of bacterial viability
